Key:
[1] = biological target: T1, GL-7-ACA acylase of P. nitroreducens ATCC 33634 (Pseudomonas nitroreducens, UniProt E0D5C2); test: Effect of various inhibitors on the acylase activity; type: biochemical
T1 construct: periplasmic
T1 sequence (E0D5C2 24-556): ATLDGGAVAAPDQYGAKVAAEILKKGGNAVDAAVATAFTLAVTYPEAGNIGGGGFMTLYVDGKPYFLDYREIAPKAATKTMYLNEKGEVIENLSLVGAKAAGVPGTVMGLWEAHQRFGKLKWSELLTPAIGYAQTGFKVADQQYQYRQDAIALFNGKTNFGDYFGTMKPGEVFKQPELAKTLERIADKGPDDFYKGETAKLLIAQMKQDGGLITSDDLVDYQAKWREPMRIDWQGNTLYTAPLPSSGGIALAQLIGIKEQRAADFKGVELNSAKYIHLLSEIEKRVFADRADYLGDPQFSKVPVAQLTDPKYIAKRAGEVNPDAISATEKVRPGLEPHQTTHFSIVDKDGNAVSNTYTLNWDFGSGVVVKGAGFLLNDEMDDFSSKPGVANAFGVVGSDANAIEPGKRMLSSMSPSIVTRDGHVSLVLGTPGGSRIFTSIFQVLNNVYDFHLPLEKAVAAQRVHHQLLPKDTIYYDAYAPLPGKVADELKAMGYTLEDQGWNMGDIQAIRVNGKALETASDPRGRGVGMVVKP
T1 sequence (E0D5C2 25-556 partner): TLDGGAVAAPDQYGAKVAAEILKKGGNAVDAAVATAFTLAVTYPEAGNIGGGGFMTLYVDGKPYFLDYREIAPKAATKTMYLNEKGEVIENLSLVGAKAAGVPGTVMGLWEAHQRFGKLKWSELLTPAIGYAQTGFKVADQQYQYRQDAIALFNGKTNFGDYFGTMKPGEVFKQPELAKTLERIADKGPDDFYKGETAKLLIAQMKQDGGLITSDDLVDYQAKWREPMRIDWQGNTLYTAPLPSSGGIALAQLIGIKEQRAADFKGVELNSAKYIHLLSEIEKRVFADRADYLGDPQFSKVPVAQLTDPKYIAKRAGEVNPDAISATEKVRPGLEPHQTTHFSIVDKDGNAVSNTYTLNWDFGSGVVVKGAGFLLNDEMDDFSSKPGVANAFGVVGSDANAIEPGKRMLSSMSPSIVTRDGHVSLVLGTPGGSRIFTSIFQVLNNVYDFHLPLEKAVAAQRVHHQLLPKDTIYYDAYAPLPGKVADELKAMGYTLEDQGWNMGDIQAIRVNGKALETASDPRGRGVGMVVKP
Description: It has been reported that the activity of GL-7-ACA acylases can be inhibited by their own products, e.g., 7-ACA and glutaric acid. Thus, the inhibitory effects of various compounds on the present acylase were tested (Table 4). The compounds were 7-ACA, glutaric acid, glutamate, succinyl-7-ACA, and Ceph C, all of which were used at 20 mM.

[2] = biological target: T1, GL-7-ACA acylase of P. nitroreducens ATCC 33634; test: Substrate profile of GL-7-ACA acylase, whole cells of ATCC 33634; type: biochemical; conditions: for activity as substrate, in words: cells of ATCC 33634, compared with GL-7-ACA; for relative activity (percentage relative to the activity for GL7-ACA): whole cells of ATCC 33634, 0.2 g/l substrate, 37° C., 3 hr
Description: (§1) Colonies forming clear zones were cultivated in Nutrient Broth (Difco, Detroit, Mich.) and tested for GL-7-ACA acylase activity as described by Shibuya et al. (Agric. Biol. Chem. 45: 1561-1567, 1981). The whole-cell suspension of ATCC 33634 in 100 mM acetate buffer (pH 5.0) was used as the acylase source. One unit of the acylase activity was defined as the amount of enzyme that liberates 1 μmole of […] per min.
Cells of ATCC 33634 were used to convert GL-7-ACA and related compounds (Table 2). GL-7-ACA, GL-7-ADCA, and succinyl-7-ACA were prepared according to the method of Shibuya et al. (Agric. Biol. Chem. 45: 1561-1567, 1981).
^a The relative GL7-ACA acylase activity was presented as percentage
relative to the activity for GL7-ACA. Whole cells of ATCC 33634 were
incubated with 0.2 g/l of GL7-ACA, GL7-ADCA, succinyl 7ACA, or Ceph C at […]

[3] = tested on: P. nitroreducens ATCC 33634; test: Effect of composition of media on production of GL-7-ACA acylase; type: cell-based, Pseudomonas nitroreducens
Description: as §1
To obtain the optimal medium for P. nitroreducens ATCC 33634 cultivation, various media were tested according to the report of Nikolov and Danielsson (Enzyme Microbiol. Technol. 16: 1031-1036, 1994) (Table 1). The cultivation was carried out in 500 ml flasks containing 100 ml of media (Table 1) at 30° C. and 150 rpm for 24 hr. All media were adjusted to pH 7.5 before autoclaving. Yeast extract, casein, peptone, and meat extract were purchased from Difco Laboratories Inc. (Detroit, Mich.).

| SMILES | activity as substrate, in words [2] | relative activity (percentage relative to the activity for GL7-ACA) [2] | also measured |
| --- | --- | --- | --- |
| CC(=O)OCC1=C(C(=O)O)N2C(=O)[C@@H](N)[C@H]2SC1 [7-ACA, 7-Aminocephalosporanic acid] |  |  | inhibitory effect, in words ([1]; compounds used at 20 mM): strongest inhibitory effects |
| CC(=O)OCC1=C(C(=O)O)N2C(=O)[C@@H](NC(=O)CCC[C@@H](N)C(=O)O)[C@H]2SC1 [Ceph C, cephalosporin C] | No activity was detected | not detected |  |
| CC(=O)OCC1=C(C(=O)O)N2C(=O)[C@@H](NC(=O)CCCC(=O)O)[C@H]2SC1 [GL-7-ACA, glutaryl-7-aminocephalo-sporanic acid] |  | 100% |  |
| CC1=C(C(=O)O)N2C(=O)[C@@H](NC(=O)CCCC(=O)O)[C@H]2SC1 [GL-7-ADCA, glutaryl-desacetoxy-7-aminocephalosporanic acid] | nearly three times more activity | 294% |  |
| N[C@@H](CCC(=O)O)C(=O)O [Glutamate, glutamate] |  |  | Relative activity (%) of acylase with inhibitor [1]: < 1% |
| O=C(O)CCCC(=O)O [Glutaric acid, glutaric acid] |  |  | inhibition of the enzyme activity ([3]; glutaric acid at 0.12%): up to 50%; induction of GL-7-ACA acylase activity ([3]; in ATCC 33634): did not induce; lowest concentration that inhibited the acylase activity ([3]; in ATCC 33634): 0.02% |
| CC(=O)OCC1=C(C(=O)O)N2C(=O)[C@@H](NC(=O)CCC(=O)O)[C@H]2SC1 [Succinyl-7ACA, succinyl-7-ACA] | No activity was detected | not detected |  |

Reference: patent US5766871A, “Screening and characterization of glutaryl-7-aminocephalosporanic acid acylase” (priority 1996, dated 1998)
